Values of other authors, collected in article PMC9063988 (JACS Au, 2022).

Test system: SARS-CoV-2 spike pseudo-lentiviral vector into A549 cells overexpressing ACE2 and TMPRSS2

Q: For O=c1c2ccccc2[se]n1-c1ccccc1 [ebselen], which “inhibition of entry of SARS-CoV-2 lentivectors” value is on record?
A: only at high IC50 with high toxicity
